Key:
[1] = biological target: EGFR (Human), P00533 [T790M/L858R]
[2] = biological target: EGFR (Human), P00533 [Assessment of EGFR-Del T790M Dependent Cell Proliferation in BaF3 Cells]
EGFR (human) = EGFR (human) (UniProt P00533)
[3] = biological target: EGFR (Human), P00533 [T790M/L858R]; conditions: baf3
[4] = biological target: EGFR (human), P00533 [L858R]

Measured: IC50

Sequence of EGFR (human), P00533 [L858R] (P00533 whole entry L858R, looked up): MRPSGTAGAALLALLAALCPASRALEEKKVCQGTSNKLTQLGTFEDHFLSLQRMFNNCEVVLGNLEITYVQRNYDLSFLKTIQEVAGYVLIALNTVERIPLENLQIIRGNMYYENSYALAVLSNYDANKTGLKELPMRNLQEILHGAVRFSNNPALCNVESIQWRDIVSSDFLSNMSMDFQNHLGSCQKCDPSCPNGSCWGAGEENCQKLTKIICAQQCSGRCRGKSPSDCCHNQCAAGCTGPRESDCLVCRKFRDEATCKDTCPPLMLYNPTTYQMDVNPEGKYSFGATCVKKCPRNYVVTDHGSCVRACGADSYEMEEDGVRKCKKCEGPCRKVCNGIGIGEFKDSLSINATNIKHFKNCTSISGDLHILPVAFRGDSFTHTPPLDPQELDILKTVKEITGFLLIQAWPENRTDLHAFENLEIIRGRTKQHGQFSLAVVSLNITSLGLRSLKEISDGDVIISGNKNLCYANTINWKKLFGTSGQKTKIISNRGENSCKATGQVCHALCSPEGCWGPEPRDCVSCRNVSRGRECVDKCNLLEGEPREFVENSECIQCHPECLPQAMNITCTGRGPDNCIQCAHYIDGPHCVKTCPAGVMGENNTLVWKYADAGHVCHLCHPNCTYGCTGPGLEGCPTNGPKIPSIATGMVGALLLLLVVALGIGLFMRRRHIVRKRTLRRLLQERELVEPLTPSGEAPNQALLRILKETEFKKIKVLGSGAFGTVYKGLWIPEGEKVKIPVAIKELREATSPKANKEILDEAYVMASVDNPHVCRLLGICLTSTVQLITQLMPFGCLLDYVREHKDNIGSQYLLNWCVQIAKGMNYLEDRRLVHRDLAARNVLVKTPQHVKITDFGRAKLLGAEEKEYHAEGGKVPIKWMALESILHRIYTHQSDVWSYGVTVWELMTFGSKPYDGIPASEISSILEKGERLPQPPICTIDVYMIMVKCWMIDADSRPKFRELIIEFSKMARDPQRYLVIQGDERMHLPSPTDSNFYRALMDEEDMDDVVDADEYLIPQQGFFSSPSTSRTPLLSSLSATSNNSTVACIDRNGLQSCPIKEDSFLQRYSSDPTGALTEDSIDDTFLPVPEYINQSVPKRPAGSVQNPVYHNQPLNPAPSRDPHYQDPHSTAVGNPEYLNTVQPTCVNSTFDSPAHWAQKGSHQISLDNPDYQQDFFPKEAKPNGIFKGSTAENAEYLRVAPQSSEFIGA
Sequence of EGFR (Human), P00533 [T790M/L858R] (P00533 whole entry T790M/L858R, looked up): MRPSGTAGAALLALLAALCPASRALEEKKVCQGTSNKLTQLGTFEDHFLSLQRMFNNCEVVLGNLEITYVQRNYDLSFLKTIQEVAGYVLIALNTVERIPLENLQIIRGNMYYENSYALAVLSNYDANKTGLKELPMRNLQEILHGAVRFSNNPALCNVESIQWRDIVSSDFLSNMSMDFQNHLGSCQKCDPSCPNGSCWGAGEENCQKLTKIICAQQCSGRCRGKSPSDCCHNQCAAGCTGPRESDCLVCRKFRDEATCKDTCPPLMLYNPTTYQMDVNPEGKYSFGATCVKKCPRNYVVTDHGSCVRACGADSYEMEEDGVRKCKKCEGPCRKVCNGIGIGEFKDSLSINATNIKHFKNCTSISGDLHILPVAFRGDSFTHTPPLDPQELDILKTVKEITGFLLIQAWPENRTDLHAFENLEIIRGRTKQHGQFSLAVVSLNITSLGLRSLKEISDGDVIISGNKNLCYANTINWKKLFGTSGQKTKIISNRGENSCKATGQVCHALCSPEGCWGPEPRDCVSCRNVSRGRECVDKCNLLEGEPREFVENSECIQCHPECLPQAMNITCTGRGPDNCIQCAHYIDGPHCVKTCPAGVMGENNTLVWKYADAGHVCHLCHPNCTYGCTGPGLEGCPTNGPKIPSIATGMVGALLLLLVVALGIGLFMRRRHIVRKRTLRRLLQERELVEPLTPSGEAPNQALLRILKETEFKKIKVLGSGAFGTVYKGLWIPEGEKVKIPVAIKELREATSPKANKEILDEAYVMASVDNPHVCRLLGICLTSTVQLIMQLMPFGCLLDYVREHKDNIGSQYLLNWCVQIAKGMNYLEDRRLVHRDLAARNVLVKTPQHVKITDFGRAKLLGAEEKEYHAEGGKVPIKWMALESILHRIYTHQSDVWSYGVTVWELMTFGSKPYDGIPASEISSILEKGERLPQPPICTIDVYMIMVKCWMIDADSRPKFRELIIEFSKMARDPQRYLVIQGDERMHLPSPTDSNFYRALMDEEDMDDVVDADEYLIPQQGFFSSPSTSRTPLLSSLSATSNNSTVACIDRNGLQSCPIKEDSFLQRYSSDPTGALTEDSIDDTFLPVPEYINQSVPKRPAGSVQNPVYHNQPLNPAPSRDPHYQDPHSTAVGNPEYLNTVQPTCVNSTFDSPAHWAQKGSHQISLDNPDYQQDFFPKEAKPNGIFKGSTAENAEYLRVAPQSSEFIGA
Sequence of EGFR (Human), P00533 [Assessment of EGFR-Del T790M Dependent Cell Proliferation in BaF3 Cells] (P00533 whole entry, looked up, stated change not applied): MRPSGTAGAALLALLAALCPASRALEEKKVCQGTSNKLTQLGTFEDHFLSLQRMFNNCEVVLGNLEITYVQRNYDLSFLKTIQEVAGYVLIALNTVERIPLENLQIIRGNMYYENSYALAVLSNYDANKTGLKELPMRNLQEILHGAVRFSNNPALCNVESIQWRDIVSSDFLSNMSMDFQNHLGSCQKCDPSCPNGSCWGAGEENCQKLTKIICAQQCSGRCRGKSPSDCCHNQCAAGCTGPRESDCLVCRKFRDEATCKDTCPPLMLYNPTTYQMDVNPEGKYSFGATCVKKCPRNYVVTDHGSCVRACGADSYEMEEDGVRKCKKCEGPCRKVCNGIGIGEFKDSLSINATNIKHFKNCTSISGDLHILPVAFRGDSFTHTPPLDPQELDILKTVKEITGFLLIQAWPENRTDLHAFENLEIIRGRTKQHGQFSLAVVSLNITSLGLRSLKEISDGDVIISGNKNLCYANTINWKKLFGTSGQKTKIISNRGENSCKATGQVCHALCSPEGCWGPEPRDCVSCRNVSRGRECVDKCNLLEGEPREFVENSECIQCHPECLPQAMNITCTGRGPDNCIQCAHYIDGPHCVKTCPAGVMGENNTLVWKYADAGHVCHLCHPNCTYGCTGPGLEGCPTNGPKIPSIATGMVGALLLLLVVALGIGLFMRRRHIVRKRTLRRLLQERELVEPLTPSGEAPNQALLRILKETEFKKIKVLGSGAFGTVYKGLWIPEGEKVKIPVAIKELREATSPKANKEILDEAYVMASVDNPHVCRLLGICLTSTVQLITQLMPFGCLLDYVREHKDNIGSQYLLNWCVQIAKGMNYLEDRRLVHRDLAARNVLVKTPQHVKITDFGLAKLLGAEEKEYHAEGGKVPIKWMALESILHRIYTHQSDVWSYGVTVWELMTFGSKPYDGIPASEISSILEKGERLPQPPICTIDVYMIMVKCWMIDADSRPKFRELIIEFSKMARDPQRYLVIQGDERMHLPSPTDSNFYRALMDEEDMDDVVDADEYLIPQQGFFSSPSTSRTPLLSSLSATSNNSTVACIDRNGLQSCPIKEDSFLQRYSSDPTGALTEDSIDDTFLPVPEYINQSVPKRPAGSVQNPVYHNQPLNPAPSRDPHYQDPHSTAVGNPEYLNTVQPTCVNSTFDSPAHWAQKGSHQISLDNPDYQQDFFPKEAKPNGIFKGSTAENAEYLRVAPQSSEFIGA
Sequence of EGFR (human) (P00533 whole entry, looked up): as the sequence (P00533 whole entry, looked up, stated change not applied) above

COCC1CCCN1CCC#CC(=O)Nc1cc(Nc2ncc(Cl)c(Nc3ccccc3P(C)(C)=O)n2)c(OC)cc1N1CCOCC1 (stereo not given)
< 0.05 µM: all assays above

C=CC(=O)Nc1cc(Nc2ncc(Cl)c(Nc3ccccc3P(C)(C)=O)n2)c(OC)cc1C#CCN1CCCCC1
< 0.05 µM: all assays above

COc1cc(F)c(NC(=O)C#CCN2CCCC2)cc1Nc1ncc(Cl)c(Nc2ccccc2P(C)(C)=O)n1
< 0.05 µM: all assays above

C=CC(=O)Nc1cc(Nc2ncc(Cl)c(Nc3ccccc3P(C)(C)=O)n2)c(OC)cc1N1CCCN(C)CC1
< 0.05 µM: all assays above

C=CC(=O)Nc1cc(Nc2ncc(Cl)c(Nc3ccccc3P(C)(C)=O)n2)c(OC)cc1OC(COCC)CN(C)C (stereo not given)
< 0.05 µM: all assays above

C=CC(=O)Nc1cc(Nc2ncc(Cl)c(Nc3ccc(OCCN4CCCC4)cc3P(C)(C)=O)n2)c(OC)cc1F
< 0.05 µM: all assays above

C=CC(=O)Nc1cc(Nc2ncc(Cl)c(Nc3ccccc3P(C)(C)=O)n2)c(OC)cc1OCC1CCCCN1C (stereo not given)
< 0.05 µM: all assays above

C=C(CN1CCC(N2CCN(C)CC2)CC1)C(=O)Nc1ccc(OC)c(Nc2ncc(Cl)c(Nc3ccccc3P(C)(C)=O)n2)c1
< 0.05 µM: all assays above

COc1cc(F)c(NC(=O)C#CCCN2CCCCC2)cc1Nc1ncc(Cl)c(Nc2ccccc2P(C)(C)=O)n1
< 0.05 µM: all assays above

C=CC(=O)Nc1cc(Nc2ncc(Cl)c(Nc3ccccc3P(C)(C)=O)n2)c(OC)cc1C#CCN(C(C)C)C(C)C
< 0.05 µM: all assays above

C=CC(=O)Nc1cc(Nc2ncc(Cl)c(Nc3ccccc3P(C)(C)=O)n2)c(OC)cc1OC(COC)CN1CCC1 (stereo not given)
< 0.05 µM: all assays above

C=CC(=O)Nc1cc(Nc2ncc(Cl)c(Nc3ccccc3P(C)(C)=O)n2)c(OC)cc1OC(CF)CN(CC)CC (stereo not given)
< 0.05 µM: all assays above

COc1cc(F)c(NC(=O)C#CCN(C)C)cc1Nc1ncc(Cl)c(Nc2ccccc2P(C)(C)=O)n1
< 0.05 µM: all assays above

Reference: the Kinase Knowledgebase extract (Sharma et al. 2016)
